Data published in patent publication US20120189670A1, “PHARMACEUTICAL COMPOSITIONS AND FORMULATIONS INCLUDING INHIBITORS OF THE PLECKSTRIN HOMOLOGY DOMAIN AND METHODS FOR USING SAME” (priority 2009, published 2012).
Converted amounts (≈) assume the structure as drawn. Read-outs that look alike come from different tables or passages of the source. Each block holds one compound with its values, some of them ahead of it.

Key:
[1] = biological target: T1, AKT (phospho-Ser^473 AKT) in NIH3T3 cells (Mus musculus, UniProt P31750); test: Inhibition of phospho-Ser473 AKT in NIH3T3 cells; type: cell-based
T1 construct: endogenous in cells; host or cells: NIH3T3
Description: […]. […] AKT activity was measured by Western blotting using anti-phosphoSer437 AKT antibody. Downstream targets of AKT were detected also by Western blotting using specific anti-phospho antibodies and anti-actin was used as a loading control.

[2] = biological target: T2, AKT (phospho-Ser^473 AKT) in HT-29 colon cancer cells (Homo sapiens, UniProt P31749); test: Inhibition of phospho-Ser473 AKT in HT-29 colon cancer cells (Table 11); type: cell-based; settings: human HT-29 colon cancer cells
T2 construct: endogenous in cells; host or cells: HT-29
Description: AKT activity was measured by Western blotting using anti-phosphoSer437 AKT antibody. Downstream targets of AKT were detected also by Western blotting using specific anti-phospho antibodies and anti-actin was used as a loading control.
AKT activity was measured by Western blotting using anti-phospho-[…] AKT antibody, PDK activity by anti-phospho-Ser241 PDK antibody as well as downstream target PKC using pan-phospho PKC antibodies. Anti-actin was used as a loading control.

[3] = Cytotoxicity in HT-29 cells; type: cell-based, human; settings: human
[4] = Metabolic stability, incubation with HT-29 cells; type: in vitro ADME; settings: human
Excerpt: Compound 6 was too insoluble to obtain data.

[5] = Solubility (Table 11); type: physicochemical
[6] = biological target: T3, AKT PH domain (Homo sapiens, UniProt P31749); settings: purified AKT PH domain, SPR
[7] = biological target: T4, IRS1 PH domain (Homo sapiens, UniProt P35568); test: SPR direct binding, KD, IRS1 PH domain; settings: Table 10, SPR; for Kd: read-out: 1RS1 PH mKD
T4 sequence (P35568 12-115 limits assumed): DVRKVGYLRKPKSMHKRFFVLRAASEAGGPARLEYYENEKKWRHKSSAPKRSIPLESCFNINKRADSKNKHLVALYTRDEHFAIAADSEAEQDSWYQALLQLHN
Description: (§1) Binding assays using SPR and an ELISA competitive binding assay were used to measure the binding affinity (KD) of the compounds to all three PH domains. SPR was carried out as described above. […] Purified GST-PH domains were incubated with increasing concentrations of the compounds under analysis for about 4 hours in 0.2 M carbonate buffer pH 9.4 and were added to the 96-well plate and incubated overnight at 4° C. Following incubation, the plate was washed 4 times with phosphate buffered 0.9% NaCl (PBS), blocked with 3% bovine serum albumin (BSA) in PBS and 0.01% Tween for 1 hour, washed again 4 times with PBS and mouse monoclonal anti-glutathione-S-transferase antibody in 3% BSA (1:2000) was added for 1 hr at room temperature with shaking. The plate was washed 4 times with PBS and an anti-mouse IgG horseradish peroxidase coupled antibody (dilution 1:2000 in 3% BSA) was added for 1 hr. After 4 washes with PBS, 2,2′-azinobis[3-ethylbenzothiazoline-6-sulfonic acid]-diammonium salt (ABST) was added and the reaction was allowed to develop for 30 min.

[8] = tested on: HT-29 cells; test: Cytotoxicity in HT-29 cells; type: cell-based, human
[9] = tested on: Panc-1 pancreatic cell line; test: Apoptosis, morphological assay, Panc-1; type: cell-based, human; settings: Panc-1, 20 μmol/L
Excerpt: (§2) AKT inhibition leads to cellular apoptosis.

[10] = tested on: MiaPaca-2 pancreatic cell line; test: Apoptosis, morphological assay, MiaPaca-2; type: cell-based, human; settings: MiaPaca-2, 20 μmol/L
Excerpt: as §2

[11] = tested on: Panc-1 pancreatic cell line; test: MTT cell survival, Panc-1; type: cell-based; settings: Homo sapiens; Panc-1, MTT
[12] = tested on: MiaPaca-2 pancreatic cell line; test: MTT cell survival, MiaPaca-2; type: cell-based; settings: Homo sapiens, MIA PaCa-2; MiaPaca-2, MTT
Excerpt: as §2

[13] = tested on: pancreatic cancer cells; test: Cell viability assay (Table 3); settings: viability assay; cell line not given
[14] = biological target: T5, PH domain of PDK1 (Homo sapiens, UniProt O15530); test: SPR direct binding, KD, PDK1 PH domain; settings: Table 10, SPR; read-out: PDK1 PH mKD
T5 sequence (O15530 459-550 limits assumed): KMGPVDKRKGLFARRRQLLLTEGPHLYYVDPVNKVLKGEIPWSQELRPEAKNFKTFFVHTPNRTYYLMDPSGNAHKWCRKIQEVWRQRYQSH
Description: as §1

[15] = Pharmacokinetics of compound 316 in scid mice; type: in vivo, mouse
[16] = type: in vivo
[17] = biological target: AKT (phospho-Ser-AKT) in HT-29 xenograft tumors (Homo sapiens, UniProt P31749); test: Tumor phospho-Ser-AKT in HT-29 xenografts; type: in vivo, mouse; settings: 4 hours after a single 250 mg/kg dose
[18] = tested on: SKOV-3 ovarian cancer; test: Antitumor activity, oral gavage, SKOV-3 xenograft; type: in vivo, mouse; settings: SKOV-3, 250 mg/kg BID × 10 D oral
[19] = pH solubility profile / pKa; type: physicochemical; settings: aqueous buffer solutions, from pH-solubility profile
Description: These samples were then rotated at room temperature for 24 hours. After rotation, if there was no evidence of precipitated compound, additional compound 104 was added and the dissolution processes were repeated. […] HPLC Assay. […] The run time was 5 minutes and the injection volume was 2 μL.

[20] = biological target: T3, AKT PH domain; test: SPR direct binding (Biacore 2000), KD; design: made in house; settings: purified AKT PH domain
Description: as §1

[21] = biological target: T6, AKT (phospho-Ser^473-AKT) in HT-29 lung cancer cells (Homo sapiens, UniProt P31749); test: Western blot phospho-Ser473-AKT in HT-29 cells (Table 2); type: cell-based; settings: read-out: AKT inhibition (IC50)
T6 construct: endogenous in cells; host or cells: HT-29
Excerpt: as §2

[22] = tested on: HT-29 lung cancer cells; test: MTT cell survival in HT-29 cells (Table 2); type: cell-based; settings: Homo sapiens
[23] = HT-29 cell culture conditions, read-out: half lives under cell culture conditions
[24] = incubating with HT-29 cells at maximum DMEM concentration at 37° C., read-out: Metabolic half life

T1 sequence (P31750 whole entry): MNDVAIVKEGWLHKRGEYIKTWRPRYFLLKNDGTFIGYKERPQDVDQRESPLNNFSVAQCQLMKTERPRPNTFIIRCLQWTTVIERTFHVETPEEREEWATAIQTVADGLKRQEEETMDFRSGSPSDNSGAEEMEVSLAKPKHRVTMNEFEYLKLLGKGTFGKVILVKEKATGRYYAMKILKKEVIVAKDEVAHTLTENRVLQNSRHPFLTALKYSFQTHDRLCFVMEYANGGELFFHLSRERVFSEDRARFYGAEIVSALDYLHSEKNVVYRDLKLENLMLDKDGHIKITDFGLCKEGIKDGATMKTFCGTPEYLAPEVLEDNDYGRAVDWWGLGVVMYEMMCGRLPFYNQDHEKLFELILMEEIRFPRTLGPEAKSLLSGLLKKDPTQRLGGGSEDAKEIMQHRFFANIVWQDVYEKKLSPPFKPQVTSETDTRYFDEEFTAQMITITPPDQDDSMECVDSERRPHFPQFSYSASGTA
T2 sequence (P31749 whole entry): as the sequence (P31750 whole entry) above, with N2S, S50A, A100T, R112K, T117E, T389K, N410G, D415H counted along it
T3 sequence (P31749 5-108 limits assumed): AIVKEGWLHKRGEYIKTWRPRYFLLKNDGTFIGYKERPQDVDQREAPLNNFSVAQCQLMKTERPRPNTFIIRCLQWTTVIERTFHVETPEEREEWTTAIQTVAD
AKT (phospho-Ser-AKT) in HT-29 xenograft tumors, sequence (P31749 whole entry): as the sequence (P31750 whole entry) above, with N2S, S50A, A100T, R112K, T117E, T389K, N410G, D415H counted along it
T6 sequence (P31749 whole entry): as the sequence (P31750 whole entry) above, with N2S, S50A, A100T, R112K, T117E, T389K, N410G, D415H counted along it

- IC50 [1]: > 20 µM
- IC50 [2]: > 20 µM
- half-life [4, 23]: 1 to 2 h
- half-life [4, 24]: 1.52 h
- solubility [5]: 28.6 µM (≈ 14.9 µg/mL)
Compound: CC1=NN(C(=O)c2ccc(C(C)(C)C)cc2)C(=O)C1/N=N/c1ccc(S(=O)(=O)Nc2ncccn2)cc1 (centres unmarked) [Compound 332]
- IC50 [3]: 25 µM

- Ki [6]: ~0.3 µM
Compound: CCCCCCCC(=O)OC[C@H](COP(=O)(O)O[C@H]1[C@H](O)[C@@H](OP(=O)(O)O)[C@H](OP(=O)(O)O)[C@@H](OP(=O)(O)O)[C@H]1O)OC(=O)CCCCCCC [diC8-PtdIns(3,4,5)P3]

- 1RS1 PH mKD [7]: low KD
- Kd [7]: 0.14 ± 0.02 µM
- IC50 [2]: > 20 µM
- half-life [4, 24]: > 8 h
- solubility [5]: 12.9 µM (≈ 6.17 µg/mL)
Compound: CC1=NN(C(=O)c2ccc(N)cc2)C(=O)C1/N=N/c1ccc(S(=O)(=O)Nc2ncccn2)cc1 (centres unmarked) [Compound 333]
- IC50 [3]: > 100 µM
- Cytotoxicity (IC50 μM) [8]: no cytotoxicity

- Kd [14]: 0.42 µM
- 1RS1 PH mKD [7]: low KD
- Kd [7]: 1.74 ± 0.41 µM
- IC50 [1]: 5 µM
- IC50 [2]: > 20 µM
- half-life [4, 23]: 1 to 2 h
- half-life [4, 24]: 2.3 h
- solubility [5]: 13.1 µM (≈ 6.28 µg/mL)
Compound: CC1=NN(C(=O)c2ccc(O)cc2)C(=O)C1/N=N/c1ccc(S(=O)(=O)Nc2ncccn2)cc1 (centres unmarked) [Compound 360]
- IC50 [3]: > 100 µM
- Cytotoxicity (IC50 μM) [8]: no cytotoxicity

- KD [20]: did not appear to bind
Compound: CC(=O)Nc1ccc(S(=O)(=O)Nc2nncs2)cc1 [Compound 102, N-(4-(N-1,3,4-Thiadiazol-2-ylsulfamoyl)phenyl)acetamide]
- IC50 [11]: > 100 µM
- IC50 [12]: > 100 µM

- IC50 [21]: 5 µM
Compound: O=C(O)c1ccccc1C(=O)Nc1ccccc1SCCS(=O)(=O)c1ccc(Cl)cc1 [Compound 389]
- IC50 [22]: > 100 µM

The remaining lines, values behind:

Compound: Nc1ccc(S(=O)(=O)Nc2nncs2)cc1 [Compound 100, 4-Amino-N-(1,3,4-thiadiazol-2-yl)benzenesulfonamide]
- Apoptosis at 20 μmol/L [9]: 24.3 ± 3.2/ %
- Apoptosis at 20 μmol/L [10]: 25.7 ± 2.6%
- IC50 [11]: > 100 µM
- IC50 [12]: > 100 µM
- Cell viability (IC50) [13]: N/I

Compound: CC1=NN(C(=O)c2ccc(Cl)cc2)C(=O)C1/N=N/c1ccc(S(=O)(=O)Nc2ncccn2)cc1 (centres unmarked) [Compound 316, (E)-4-((1-(4-chlorobenzoyl)-3-methyl-5-oxo-4,5-dihydro-1H-pyrazol-4-yl)diazenyl)-N-(pyrimidin-2-yl)benzenesulfonamide]
- IC50 [1]: 4 µM
- half-life [4, 23]: 1 to 2 h
- half-life [4, 24]: 1.03 h
- solubility [5]: 17.9 µM (≈ 8.91 µg/mL)
- peak plasma concentration ([15]; single dose 250 mg/kg i.p.): 1.4 nM
- peak plasma concentration ([15]; single dose 250 mg/kg oral): 600 nM
- toxicity of repeated doses ([16]; five daily doses of 250 mg/kg i.p.): moderate neutropenia
- toxicity of a single dose ([16]; single dose of up to 250 mg/kg i.p.): no toxicity
- tumor phospho-Ser-AKT [17]: inhibition of tumor phospho-Ser-AKT was observed

Compound: CCCCCCCCCCCCc1ccc(S(=O)(=O)Nc2nncs2)cc1 [Compound 104, 4-Dodecyl-N-(1,3,4-thiadiazol-2-yl)benzenesulfonamide]
- Apoptosis at 20 μmol/L [10]: 31.3 ± 1.6%
- Growth rate [18]: 122 ± 16 mm^3/10 days
- T/C [18]: 28.3%
- pKa ([19]; read-out: acidic pKa): 7.9 to 8.3
- pKa ([19]; read-out: additional pKa): > 9

Compound: COCCOCCOCC(=O)Nc1ccc(S(=O)(=O)Nc2nncs2)cc1 [Compound 103]
- Apoptosis at 20 μmol/L [9]: 11.4 ± 0.5/ %
- Apoptosis at 20 μmol/L [10]: 18.7 ± 3.1%
- IC50 [11]: > 100 µM
- IC50 [12]: > 100 µM

Compound: CCCCCCCCCC(=O)Nc1ccc(S(=O)(=O)Nc2nncs2)cc1 [Compound 101, N-(4-(N-1,3,4-Thiadiazol-2-ylsulfamoyl)phenyl)decanamide]
- Apoptosis at 20 μmol/L [9]: 28.7 ± 0.3/ %
- Apoptosis at 20 μmol/L [10]: 20.0 ± 1.5%
- IC50 [11]: 127 µM
- IC50 [12]: 90 µM
